Patent US5789444A, “Method of reducing glutamate neurotoxicity with anthranilic acid derivatives” (Washington University, priority 1996, dated 1998)
“Also recorded” adds a separate entry of the source.

How the values were obtained:
[1] = tested on: NMDA-induced neurotoxicity, mouse cortical cultures; assay: NMDA-mediated excitotoxicity in mixed cortical cultures (neuronal injury by LDH release); format: cell-based
Description: (§1) Cell Culture: Mixed cortical cultures containing both neuronal and glial elements were prepared from fetal mice at 15 day gestation as previously described (Hewett et al., 1993). Glia were plated in Primaria (Falcon) 15 mm multiwell vessels in modified Eagle's medium (MEM, Earle's salts), with 2 mM glutamine, 25 mM glucose, 10% fetal bovine serum, 10% horse serum, and 10 ng/ml epidermal growth factor. Dissociated cortical cells were plated (2.75 hemispheres/10 ml/plate) in a similar medium (with only 5% fetal bovine serum and 5% horse serum) on an established bed of glia (15-30 days in vitro). All cultures were kept at 37° C. in a humidified 5% CO2 -containing atmosphere. After 3-7 days in vitro, glial cell division was halted by 2 days of exposure to 10 μM cytosine arabinoside. Cells were subsequently shifted into maintenance medium which was identical to the plating medium, but lacked fetal bovine serum. The medium was changed twice weekly. Experiments were performed on cortical cultures after 14 days in vitro.
Drug Exposure: Cells were exposed to NMDA for 5 min either alone or in the presence of test compound at room temperature in a HEPES controlled salt solution (HCSS), containing (mM): NaCl, 120; KCl, 5.4; MgCl2, 0.8; CaCl2, 1.8; HEPES, 20; glucose, 15, and glycine, 0.01 (pH 7.4). The exposure solution was then washed away and replaced by MEM (Earle's salts) supplemented with glycine (0.01 mM) and the cells returned to the incubator for 20-24 hr.
Since the neurotoxicity of NMDA preparations can vary from lot to lot, the concentration of NMDA used was determined empirically in a separate benchmarking test. Cells were exposed as described above to increasing concentrations of NMDA, and neuronal injury is assessed as described below. A dose/response curve is plotted, and a concentration which induces death in 50-70% of the neuronal population after 24 hours is used as the test concentration for evaluating compounds as neuroprotective drugs.
Assessment of Neuronal Cell Injury: Neuronal cell death was estimated by examination of cultures under phase-contrast microscopy, and quantified by measurement of lactate dehydrogenase (LDH) released by damaged or destroyed cells into the bathing medium one day following experimentation (Koh, J. Y. and Choi, D. W., 1987). The LDH signal corresponding to near-complete neuronal death was determined by assaying the supernatant of sister cultures which were exposed to 500 μM NMDA for 24 hr in MEM supplemented with 10 μM glycine. Background LDH levels (generally <15% of total neuronal) were determined in sister cultures subjected to sham wash and subtracted from the levels in experimental conditions to yield the LDH signal specific to experimental injury.
Mouse cortical cultures were exposed for 5 min to NMDA (100 μM) alone or in the presence of increasing concentrations of meclofenamate sodium, as described under Experimental Procedures, above. Values represent the mean LDH±SEM (n=5-7) scaled to the mean LDH found in control injury (=100).
Mouse cortical cultures were exposed, as described in Example 1, for 5 min to solutions containing increasing concentrations of NMDA or NMDA plus 300 μM meclofenamate. LDH activity was assessed 20-24 hr later. Data are expressed as the percentage of total LDH released (mean ±SEM; n=10). Total LDH was determined by assaying the supernatant of sister cultures which were incubated with 500 μM NMDA for 24 hr. An asterisk indicates difference form untreated controls as determined by repeated measures Analysis of Variance ("ANOVA") followed by Bonferroni's t-test for multiple comparisons (p<0.01).
Cells were exposed to NMDA (100-200 μM) (as described previously) both in the presence and absence of cyclooxygenase/lipooxygenase inhibitors. Data represents the mean LDH±SEM scaled to the mean LDH found in control injury (NMDA alone=100). Data were analyzed via ANOVA followed by Dunnett's t-test for multiple comparisons.

[2] = tested on: NMDA receptor; assay: Whole-cell recording of NMDA current in cortical neurons; format: cell-based, mouse
Description: Electrophysiological Recording: NMDA current was recorded at room temperature (25° C.) from DIV 12-20 cortical neurons plated on 35 mm dishes using whole-cell recording (EPC-7, List-Electronic, Germany) under voltage clamp. The data acquisition program, PULSE (HEKA Electronic, Germany), was used to control the voltage clamp, to monitor and to collect current and voltage data on a Macintosh computer (Quatra 950, Apple Computer Corp., USA). The extracellular solution contained (mM): NaCl, 145; KCl, 3; MnCl2, 2; CaCl2, 2; glycine, 0.01; HEPES, 10; TTX, 0.005 and glucose, 5. The recording electrode's internal solution contained (mM) CsCl, 150, ATP-Na, 2, BAPTA, 0.5 and HEPES, 10. All solutions were adjusted to pH 7.3 by Tris buffer. NMDA (100 μM) in the extracellular solution was delivered to the cell by a multi-channel DAD drug delivery system (Adams and List Inc., New York.) To eliminate dilution of drug, meclofenamate was added to the bath medium and NMDA was delivered in an extracellular solution containing the same concentration of drug.
Ten min prior to NMDA (100 μM) application, mouse cortical cells were treated with 300 μM meclofenamate. NMDA current was recorded using whole cell recording techniques. To eliminate dilution of drug, NMDA was delivered to the cell in a solution containing the same concentration of drug as that in the bath.

[3] = tested on: NMDA-induced 45Ca2+ influx; assay: 45Ca2+ accumulation during NMDA exposure in cortical cultures; format: cell-based, mouse; details: NMDA 300 μM, 5 min, increasing concentrations, n=18, FIG. 4
Description: ^45 Ca^2 + accumulation: Mouse cortical cultures were washed with HCSS and then exposed to NMDA (300 μM) alone or in the presence of increasing concentrations of meclofenamate in HCSS containing a trace amount of ^45 Ca^2+ (0.5 μCi/well; NEN, Boston, Mass.). After 5 min the exposure solution was washed out with four rinses of HCSS (750 μl each) and the cells were lysed by addition of 0.2% sodium dodecyl sulfate (SDS) at 37° C. An aliquot of cell lysate was estimated by β-counting.
Mouse cortical cultures were exposed, as in Example 1, for 5 min to NMDA (300 μM) alone or NMDA plus increasing concentrations of meclofenamate in the presence of extracellular ^45 Ca^2+. Values are expressed as mean ±SEM (n=18).

[4] = tested on: voltage-gated calcium channels; assay: KCl-stimulated influx of calcium (fura-2 fluorescence videomicroscopy); format: cell-based, mouse; details: meclofenamate 300 μM, 60 mM KCl, 5 min; FIG. 5
Description: as §1, with “The medium was changed twice weekly. Experiments were performed on cortical cultures after 14 days in vitro.” left out
Cytosolic Calcium Measurements: Intracellular free calcium was measured using fura-2 fluorescence videomicroscopy. […] Background fluorescence was measured from a cell free region of the coverslip at the end of each experiment and subtracted from each 340 and 380 image. […]
Cells were exposed for 5 minutes, as in Example 1, to 60 mM KCl in the presence and absence of meclofenamate (300 μM). Intracellular free calcium [Ca^2 +]i was measured using fura-2 fluorescence videomicroscopy.

[5] = tested on: focal cerebral ischemia, Long Evans male rats; assay: Induced focal cerebral ischemia (MCAO) with reperfusion, cortical infarct volume; format: in vivo, rat
Description: Surgical MCAO occlusion: Focal cerebral ischemia, confined to the cerebral cortex in the right middle cerebral artery territory (MCA) of Long Evans male rats (250-350 g; Charles Rivers, Wilmington, Del.), was induced by temporary ligation of the MCA and both common carotid arteries (CCAs) as described by Chen et al., 1986. The rectal temperature was monitored and maintained at 37.0°±0.5° C. via an electronic temperature controller (Versa-Therm 2156, Cole-Parmer, Chicago, Ill.) linked to a heating lamp. Physiological parameters including plasma blood glucose, arterial blood pressure, and pulse rate were monitored as described previously and maintained within normal range (Liu et al, 1989). Reperfusion was initiated by releasing arterial occlusion affecting all 3 vessels after 90 min of ischemia. Restoration of blood flow in all three arteries was observed directly under the microscope. Rats were treated i.p. with vehicle (control) or meclofenamate (10 mg/kg, i.p.) 15 min before ischemia.. The cortical infarct volume was morphometrically measured after triphenyl tetrazolium chloride stain 24 hr after MCAO.
31 rats underwent middle cerebral artery occlusion (MCAO) followed by reperfusion. Fourteen rats underwent MCAO alone while 17 rats were given intraperitoneal meclofenamate (10 mg/kg) 15 minutes prior to 90 min MCAO.

[6] = tested on: cyclooxygenase and lipoxygenase metabolites; assay: RIA measurements of lipid breakdown products following NMDA exposure; format: cell-based; details: data not shown
[7] = tested on: lipid catabolism; details: known; cited from earlier work
[8] = tested on: lipoxygenase/cyclooxygenase; details: conclusion of prior studies; cited from earlier work
[9] = Mus musculus, compound 300 μM, NMDA 100-200 μM, mean LDH±SEM, asterisk = significantly different from control, read-out: LDH, % of control (NMDA alone=100)

COc1ccc2cc([C@H](C)C(=O)O)ccc2c1 [naproxen]
activity at 300 µM [1, 9]: 82.5 ± 7.1%

Cc1ccc(Cl)c(Nc2ccccc2C(=O)O)c1Cl [Meclofenamate]
activity at 300 µM [1, 9]: 10.8 ± 5.1% | neuronal injury (LDH release) ([1]; given at the same time as NMDA (100 μM, 5 min), increasing concentrations, FIG. 1): dose-dependently decreased neuronal injury | protective effect against NMDA receptor-mediated neurotoxicity ([1]; in vitro, summary in words, listed as meclofenamate sodium): powerful protective effect; also recorded: neuroprotective | neuroprotection over a full concentration-toxicity curve for NMDA ([1]; meclofenamate 300 μM, FIG. 2): Complete neuroprotection | NMDA current ([2]; 300 μM, 10 min prior to NMDA (100 μM), whole-cell, FIG. 3): failed to alter the current elicited by application of NMDA | NMDA receptor antagonism ([2]; electrophysiological and radiotracer flux measurements): not an NMDA receptor antagonist | NMDA-induced 45Ca2+ influx / uptake [3]: did not significantly affect uptake at any concentration tested | NMDA-induced 45Ca2+ influx / uptake ([3]; listed as meclofenamate): not significantly altered | elevation of intracellular calcium produced by KCl stimulation [4]: no effect on the elevation of intracellular calcium produced by KCl stimulation | cortical infarct volume ([5]; 10 mg/kg i.p. 15 min prior to 90 min MCAO, 24 hr, control 144.8±8.8, p<0.002): 99.2±9.2 mm^3 | neuroprotection in animal model of cerebral ischemia ([5]; in vivo, summary in words): neuroprotective | formation of cyclooxygenase and lipoxygenase metabolites [6]: able to block formation of both cyclooxygenase and lipoxygenase metabolites | inhibition of lipid catabolism [7]: inhibitor of lipid catabolism | lipoxygenase/cyclooxygenase inhibition [8]: dual lipoxygenase/cyclooxygenase inhibitor

O=C1CCN(c2ccccc2)N1 [Phenidone]
activity at 300 µM [1, 9]: 58.1 ± 6.7%

CC(Cc1ccc(O)c(O)c1)C(C)Cc1ccc(O)c(O)c1 (stereo not drawn) [NDGA]
activity at 30 µM ([1]; Mus musculus, compound 30 μM, NMDA 100-200 μM, mean LDH±SEM, read-out: LDH, % of control (NMDA alone=100)): 101 ± 11%

CC(C)Cc1ccc(C(C)C(=O)O)cc1 (stereo not drawn) [ibuprofen]
activity at 100 µM ([1]; Mus musculus, compound 100 μM, NMDA 100-200 μM, mean LDH±SEM, asterisk = significantly different from control, read-out: LDH, % of control (NMDA alone=100)): 65.4 ± 3.5%

O=c1ccc2cc(O)c(O)cc2o1 [Esculetin]
activity at 300 µM [1, 9]: 117 ± 17.1%

CCCCCCCCC#CCC#CCC#CCCCC(=O)O [ETI]
LDH, % of control (NMDA alone=100) ([1]; compound 300 μM, NMDA 100-200 μM, mean LDH±SEM, asterisk = significantly different from control): 107 ± 13.0%

CCCCCC#CCC#CCC#CCC#CCCCC(=O)O [ETYA]
activity at 300 µM [1, 9]: 85.1 ± 6.2%
